{"source": "patent US10544104B2", "about": "“Compositions and methods for treating toxoplasmosis, cryptosporidiosis, and other apicomplexan protozoan related diseases” (University of Washington through its Center for …, priority 2010, dated 2020)", "key": {"[1]": {"target": "CpCDPK1 (Cryptosporidium parvum (strain Iowa II), UniProt A3FQ16)", "sequence (A3FQ16 1-538)": "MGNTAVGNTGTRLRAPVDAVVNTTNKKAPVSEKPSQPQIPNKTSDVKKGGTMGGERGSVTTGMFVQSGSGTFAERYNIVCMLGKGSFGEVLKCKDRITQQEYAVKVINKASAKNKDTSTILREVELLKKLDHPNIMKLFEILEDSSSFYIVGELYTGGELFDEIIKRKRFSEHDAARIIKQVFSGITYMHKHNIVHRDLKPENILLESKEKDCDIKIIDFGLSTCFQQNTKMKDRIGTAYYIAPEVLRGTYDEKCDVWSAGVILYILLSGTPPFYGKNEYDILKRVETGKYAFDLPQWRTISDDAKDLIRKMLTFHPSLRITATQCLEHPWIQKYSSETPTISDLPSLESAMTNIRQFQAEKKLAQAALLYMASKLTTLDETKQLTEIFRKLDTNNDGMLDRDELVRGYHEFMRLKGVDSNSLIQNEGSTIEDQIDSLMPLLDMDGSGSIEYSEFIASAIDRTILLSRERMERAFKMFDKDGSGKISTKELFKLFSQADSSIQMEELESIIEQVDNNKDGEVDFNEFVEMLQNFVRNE", "assay_type": "biochemical"}, "[2]": {"target": "T1, TgCDPK1 (Toxoplasma gondii, UniProt Q9BJF5)", "T1 sequence (Q9BJF5 1-507)": "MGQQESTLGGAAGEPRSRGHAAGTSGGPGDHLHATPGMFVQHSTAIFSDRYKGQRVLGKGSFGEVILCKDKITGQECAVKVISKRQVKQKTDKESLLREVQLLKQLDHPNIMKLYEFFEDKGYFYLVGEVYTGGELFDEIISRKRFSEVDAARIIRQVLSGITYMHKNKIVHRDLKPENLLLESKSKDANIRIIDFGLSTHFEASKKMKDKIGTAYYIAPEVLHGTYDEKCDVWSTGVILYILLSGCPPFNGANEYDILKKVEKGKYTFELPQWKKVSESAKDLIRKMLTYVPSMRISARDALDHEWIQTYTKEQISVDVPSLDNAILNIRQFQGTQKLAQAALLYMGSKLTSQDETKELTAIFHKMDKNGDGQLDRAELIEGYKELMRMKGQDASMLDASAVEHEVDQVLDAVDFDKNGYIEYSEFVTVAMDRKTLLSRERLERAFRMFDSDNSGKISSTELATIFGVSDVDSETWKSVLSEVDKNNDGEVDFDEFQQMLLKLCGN", "assay_type": "biochemical", "conditions": "read-out: Km for ATP"}, "[3]": {"target": "T1, TgCDPK1", "assay_type": "biochemical", "conditions": "read-out: Km of substrates"}, "[4]": {"target": "PfCDPK1 (Plasmodium falciparum (isolate 3D7), UniProt P62344)", "assay": "biochemical", "conditions": "read-out: PfCDPK1 (% inhibition @ 3 uM)"}, "[5]": {"target": "PfCDPK4 (Plasmodium falciparum (isolate 3D7), UniProt Q8IBS5)", "assay": "biochemical", "conditions": "read-out: PfCDPK4 (% inhibition @ 3 uM)"}, "[6]": {"assay": "in vitro", "conditions": "human"}, "[7]": {"assay": "in vitro", "conditions": "human", "remark": "listed apart in the source"}, "[8]": {"assay": "in vitro", "conditions": "human", "remark": "listed apart in the source"}, "[9]": {"assay": "in vitro", "conditions": "human", "remark": "listed apart in the source"}, "[10]": {"system": "SF539", "assay": "Growth inhibition / toxicity, glioma derived SF539"}, "[11]": {"system": "CRL8155", "assay": "Growth inhibition / toxicity, human lymphocyte CRL8155"}, "[12]": {"system": "HL-60", "assay": "Growth inhibition / toxicity, promyelocytic leukemia HL-60"}, "[13]": {"system": "HC 2998", "assay": "Growth inhibition / toxicity, colorectal carcinoma HC 2998"}, "[14]": {"system": "C. parvum", "assay": "C. parvum infection of HCT-8 cells (rRNA RT-PCR)", "assay_type": "cell-based, Cryptosporidium parvum"}, "[15]": {"assay": "Solubility in buffers of various pH", "assay_type": "physicochemical"}, "[16]": {"system": "P. falciparum", "assay": "microbe, parasite or virus in culture", "conditions": "Plasmodium falciparum, read-out: Proliferation Blocking P. falciparum (EC50, μM)"}, "[17]": {"system": "P. berghei expressing PfCDPK4-2x-myc", "parameters": "species or system Plasmodium berghei", "conditions": "in vivo"}, "[18]": {"system": "P. berghei", "parameters": "species or system Plasmodium berghei", "conditions": "in vivo"}, "[19]": {"system": "P. falciparum NF54 gametocytes", "assay_type": "cell-based, Plasmodium falciparum"}, "[20]": {"system": "C. parvum", "assay": "Immunosuppressed (SCID-beige) mouse C. parvum model", "assay_type": "in vivo, Cryptosporidium parvum", "conditions": "oral gavage once a day, days 3-7 and 10-14", "experimental": "Shown are mean of the parasite numbers detected in 25 mg of stool from each mouse, by qRT-PCR."}, "[21]": {"system": "human fibroblast", "assay": "Fibroblast cytotoxicity / replication (Alamar blue)", "assay_type": "cell-based", "conditions": "concentration at which toxicity (T) was observed"}, "[22]": {"system": "T. gondii", "assay": "microbe, parasite or virus in culture", "conditions": "Toxoplasma gondii, read-out: Parasite Proliferation Assay EC50 T. gondii"}}, "note": "pEC50, pIC50: −log10 of the molar value. Entries after “also recorded” stand apart in the source; their conditions may differ. Read-outs that look alike come from different tables or passages of the source.", "data": [{"compound": "6-(4-amino-1-(piperidin-4-ylmethyl)-1H- pyrazolo[3,4-d]pyrimidin-3-yl)-N,N- dimethylquinolin-2-amine [Compound 68]", "values": [{"measurement": "pIC50", "setting": "[1]", "result": "< 5.52"}]}, {"compound": "Nc1ncnc2c1ncn2[C@@H]1O[C@H](COP(=O)(O)OP(=O)(O)OP(=O)(O)O)[C@@H](O)[C@H]1O", "note": "[ATP]", "values": [{"measurement": "Km", "setting": "[2]", "result": 10, "unit": "µM"}, {"measurement": "Km", "setting": "[3]", "result": 10, "unit": "µM"}, {"measurement": "Km", "setting": "[1]; read-out: Km for ATP", "result": 9, "unit": "µM"}]}, {"compound": "CC(C)(C)n1nc(-c2cccc3ccccc23)c2c(N)ncnc21", "note": "[Compound 1, 1-tert-butyl-3-(naphthalen-1-yl)-1H-pyrazolo[3,4-d]pyrimidin-4-amine]", "values": [{"measurement": "inhibition at 3 µM", "setting": "[4]", "result": 51, "unit": "%"}, {"measurement": "inhibition at 3 µM", "setting": "[5]", "result": 25, "unit": "%"}, {"measurement": "GI50", "setting": "[6]", "result": "> 10", "unit": "µM"}, {"measurement": "GI50", "setting": "[7]", "result": "> 10", "unit": "µM"}, {"measurement": "GI50", "setting": "[8]", "result": "> 10", "unit": "µM"}, {"measurement": "GI50", "setting": "[9]", "result": "> 10", "unit": "µM"}, {"measurement": "Cell Toxicity SF539, % at 25 μM", "setting": "[10]", "result": "<30", "unit": "% at 25 μM"}, {"measurement": "Cell Toxicity CRL8155, % at 25 μM", "setting": "[11]", "result": "<30", "unit": "% at 25 μM"}, {"measurement": "Cell Toxicity HL60, % at 25 μM", "setting": "[12]", "result": "<30", "unit": "% at 25 μM"}, {"measurement": "Cell Toxicity HCC2998, % at 25 μM", "setting": "[13]", "result": "<30", "unit": "% at 25 μM"}]}, {"compound": "CC(C)(C)n1nc(-c2ccc3ccccc3c2)c2c(N)ncnc21", "note": "[Compound 2, 1-tert-butyl-3-(naphthalen-2-yl)-1H-pyrazolo[3,4-d]pyrimidin-4-amine]", "values": [{"measurement": "C. parvum parasite levels in HCT-8 cells", "setting": "[14]; inhibitor at time of infection and one hour after infection", "result": "most potent effect"}, {"measurement": "GI50", "setting": "[6]; SF539 glioma-derived cells", "result": "[…]"}, {"measurement": "GI50", "setting": "[7]; CRL8155 human lymphocyte cells", "result": "[…]"}, {"measurement": "GI50", "setting": "[8]; HL-60 human promyelocytic leukemia cells", "result": "[…]"}, {"measurement": "GI50", "setting": "[9]; HCC2998 (HC 2998) colorectal carcinoma cells", "result": "[…]"}]}, {"compound": "COc1ccc2cc(-c3nn(CC4CCNCC4)c4ncnc(N)c34)ccc2c1", "note": "[Compound 28, 3-(6-methoxynaphthalen-2-yl)-1-(piperidin-4-ylmethyl)-1H-pyrazolo[3,4-d]pyrimidin-4-amine]", "values": [{"measurement": "Experimental Solubility pH 7.4", "setting": "[15]", "result": 56, "unit": "μM"}, {"measurement": "EC50", "setting": "[16]", "result": 31.9, "unit": "µM"}]}, {"compound": "CCOc1ccc2cc(-c3nn(CC4CCNCC4)c4ncnc(N)c34)ccc2c1", "note": "[Compound 29, 3-(6-ethoxynaphthalen-2-yl)-1-(piperidin-4-ylmethyl)-1H-pyrazolo[3,4-d]pyrimidin-4-amine]", "values": [{"measurement": "duration of complete suppression of exflagellation", "setting": "[17]", "result": 14, "unit": "h"}, {"measurement": "exflagellation 20 hours after dosing", "setting": "[17]", "result": "some exflagellation was observed"}, {"measurement": "exflagellation in blood samples from treated mice", "setting": "[17]", "result": "complete suppression; also recorded: completely suppressed"}, {"measurement": "exflagellation", "setting": "[18]", "result": "sufficient to block exflagellation"}, {"measurement": "formation of oocysts in A. stephensi fed on treated mice", "setting": "[18]", "result": "completely blocked"}, {"measurement": "impact on asexual parasitaemia or gametocyte rates", "setting": "[18]", "result": "no impact"}, {"measurement": "P. falciparum exflagellation", "setting": "[19]", "result": "complete suppression; also recorded: prevented the exflagellation"}, {"measurement": "exflagellation events, repeat experiment", "setting": "[19]", "result": "suppressed completely"}, {"measurement": "infection of A. stephensi midguts", "setting": "[19]", "result": "prevented"}, {"measurement": "infective sporozoites in salivary glands", "setting": "[19]", "result": "complete absence"}, {"measurement": "prevalence of oocyst infections", "setting": "[19]", "result": "reduced the prevalence"}, {"measurement": "Experimental Solubility pH 7.4", "setting": "[15]", "result": 49, "unit": "μM"}, {"measurement": "parasites in stool at the end of treatment (qRT-PCR)", "setting": "[20]", "result": "not detected"}, {"measurement": "rebound of parasite burden after treatment", "setting": "[20]", "result": "slowly"}]}, {"compound": "CC(C)(C)n1nc(-c2ccc(Cl)cc2)c2c(N)ncnc21", "note": "[Compound 146]", "values": [{"measurement": "inhibition at 3 µM", "setting": "[4]", "result": 99, "unit": "%"}, {"measurement": "inhibition at 3 µM", "setting": "[5]", "result": 95, "unit": "%"}]}, {"compound": "CCOc1ccc2cc(-c3nn(CC4CCN(C)CC4)c4ncnc(N)c34)ccc2c1", "note": "[Compound 150, 3-(6-ethoxynaphthalen-2-yl)-1-((1-methylpiperidin-4-yl)methyl)-1H-pyrazolo[3,4-d]pyrimidin-4-amine]", "values": [{"measurement": "Observed HFF Toxicity (T at concentration)", "setting": "[21]", "result": "T at 25 μM"}, {"measurement": "pEC50", "setting": "[14]; Cryptosporidium parvum, HCT-8, read-out: Parasite Proliferation Assay EC50 C. parvum", "result": 6.27}, {"measurement": "parasites in stool at the end of treatment (qRT-PCR)", "setting": "[20]", "result": "not detected"}, {"measurement": "rebound of parasite burden after treatment", "setting": "[20]", "result": "not"}, {"measurement": "pEC50", "setting": "[22]", "result": 6.86}]}, {"compound": "CC(C)(C)n1nc(-c2ccc3ccccc3c2)c2c(N)ncnc21", "note": "[NA-PP2, reference compound]", "values": [{"measurement": "formation of oocysts in A. stephensi fed on treated mice", "setting": "[18]", "result": "hundreds of oocysts per mosquito"}]}, {"compound": "NC[C@@H]1O[C@H](O[C@H]2[C@@H](O)[C@H](O[C@@H]3[C@@H](O)[C@H](N)C[C@H](N)[C@H]3O[C@H]3O[C@H](CO)[C@@H](O)[C@H](O)[C@H]3N)O[C@@H]2CO)[C@H](N)[C@@H](O)[C@@H]1O", "note": "[Paromomycin, reference compound]", "values": [{"measurement": "parasites in stool at the end of treatment (qRT-PCR)", "setting": "[20]", "result": "not detected"}, {"measurement": "rebound of parasite burden after treatment", "setting": "[20]", "result": "quickly rebounded"}]}]}
